PubChem BioAssay AID1963841 (Molecular Pharmacology Branch, DTP, NCI, 2024)

Test system: 439559-082-T-J2-PDC spheroid viability
Assay: Anticancer human tumor 439559-082-T-J2-PDC patient-derived colon adenocarcinoma cell line growth inhibition [POLQ]
Conditions: spheroids with HUVEC and MSC; for IC50: curve of first compound; for viability, T/C: stronger effect = lower value
In short: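 Patient-derived tumour cells were co-cultured with HUVEC and mesenchymal stem cells as multicellular spheroids at 37 °C. They were treated with POLQ inhibitors (novobiocin, ART-558, RP6685) alone or combined with other agents. Top concentrations were at or near clinical Cmax (otherwise 10 microM; SN-38 at 1 microM), decreasing in half-log steps.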

[1] = second compound 0.0316 µM, first compound 0.0316 µM
[2] = second compound 0.0316 µM, first compound 0.1 µM
[3] = second compound 0.0316 µM, first compound 0.316 µM
[4] = second compound 0.0316 µM, first compound 1 µM
[5] = second compound 0.0316 µM, first compound 3.16 µM
[6] = second compound 0.0316 µM, first compound 10 µM
[7] = second compound 0.1 µM, first compound 0.0316 µM
[8] = second compound 0.1 µM, first compound 0.1 µM
[9] = second compound 0.1 µM, first compound 0.316 µM
[10] = second compound 0.1 µM, first compound 1 µM
[11] = second compound 0.1 µM, first compound 3.16 µM
[12] = second compound 0.1 µM, first compound 10 µM
[13] = second compound 0.316 µM, first compound 0.0316 µM
[14] = second compound 0.316 µM, first compound 0.1 µM
[15] = second compound 0.316 µM, first compound 0.316 µM
[16] = second compound 0.316 µM, first compound 1 µM
[17] = second compound 0.316 µM, first compound 3.16 µM
[18] = second compound 0.316 µM, first compound 10 µM
[19] = second compound 1 µM, first compound 0.0316 µM
[20] = second compound 1 µM, first compound 0.1 µM
[21] = second compound 1 µM, first compound 0.316 µM
[22] = second compound 1 µM, first compound 1 µM
[23] = second compound 1 µM, first compound 3.16 µM
[24] = second compound 1 µM, first compound 10 µM
[25] = second compound 3.16 µM, first compound 0.0316 µM
[26] = second compound 3.16 µM, first compound 0.1 µM
[27] = second compound 3.16 µM, first compound 0.316 µM
[28] = second compound 3.16 µM, first compound 1 µM
[29] = second compound 3.16 µM, first compound 3.16 µM
[30] = second compound 3.16 µM, first compound 10 µM
[31] = second compound 10 µM, first compound 0.0316 µM
[32] = second compound 10 µM, first compound 0.1 µM
[33] = second compound 10 µM, first compound 0.316 µM
[34] = second compound 10 µM, first compound 1 µM
[35] = second compound 10 µM, first compound 3.16 µM
[36] = second compound 10 µM, first compound 10 µM
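Further: spheroids exposed to compounds for seven days before readout.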
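Wherever viability, T/C is given: 100% = DMSO vehicle control viability.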

## CCc1cc2c(N3CCc4c(cc(Cn5ccnc5)cc4-c4cn(C)nc4C(F)(F)F)C3=O)cc(C)nc2c(OC)n1 + Cc1cccc(N(C)C(=O)C2C(O)CCN2c2nc(C)cc(C(F)(F)F)c2C#N)c1
Second compound 0.0316 µM
  IC50: > 10 µM
Second compound 0.1 µM
  IC50: > 10 µM
Second compound 0.316 µM
  IC50: > 10 µM
Second compound 1 µM
  IC50: > 10 µM
Second compound 3.16 µM
  IC50: > 10 µM
Second compound 10 µM
  IC50: > 10 µM
[1]
  viability, T/C: 105%
[2]
  viability, T/C: 101%
[3]
  viability, T/C: 101%
[4]
  viability, T/C: 98.3%
[5]
  viability, T/C: 95.1%
[6]
  viability, T/C: 97.3%
[7]
  viability, T/C: 101%
[8]
  viability, T/C: 96.9%
[9]
  viability, T/C: 90.2%
[10]
  viability, T/C: 77.2%
[11]
  viability, T/C: 111%
[12]
  viability, T/C: 105%
[13]
  viability, T/C: 94.7%
[14]
  viability, T/C: 95.3%
[15]
  viability, T/C: 105%
[16]
  viability, T/C: 81%
[17]
  viability, T/C: 90.6%
[18]
  viability, T/C: 89.8%
[19]
  viability, T/C: 96.6%
[20]
  viability, T/C: 104%
[21]
  viability, T/C: 95.8%
[22]
  viability, T/C: 95.7%
[23]
  viability, T/C: 99.6%
[24]
  viability, T/C: 94.9%
[25]
  viability, T/C: 111%
[26]
  viability, T/C: 93.6%
[27]
  viability, T/C: 87.6%
[28]
  viability, T/C: 92.2%
[29]
  viability, T/C: 107%
[30]
  viability, T/C: 94%
[31]
  viability, T/C: 94.8%
[32]
  viability, T/C: 111%
[33]
  viability, T/C: 80.7%
[34]
  viability, T/C: 91.5%
[35]
  viability, T/C: 98.1%
[36]
  viability, T/C: 86%

## CC(C)n1c(=O)n(C)c2cnc3cc(F)c(-c4ccc(OCCCN5CCCCC5)nc4)cc3c21 + Nc1ccc(C#CCN(C(=O)Cc2ncc(C(F)(F)F)cc2C(F)(F)F)c2ccc(F)cc2)nn1
Second compound 0.0316 µM
  IC50: > 10 µM
Second compound 0.1 µM
  IC50: > 10 µM
Second compound 0.316 µM
  IC50: > 10 µM
Second compound 1 µM
  IC50: > 10 µM
Second compound 3.16 µM
  IC50: > 10 µM
Second compound 10 µM
  IC50: > 10 µM
[1]
  viability, T/C: 88.2%
[2]
  viability, T/C: 110%
[3]
  viability, T/C: 113%
[4]
  viability, T/C: 105%
[5]
  viability, T/C: 110%
[6]
  viability, T/C: 96.7%
[7]
  viability, T/C: 106%
[8]
  viability, T/C: 113%
[9]
  viability, T/C: 104%
[10]
  viability, T/C: 122%
[11]
  viability, T/C: 102%
[12]
  viability, T/C: 112%
[13]
  viability, T/C: 103%
[14]
  viability, T/C: 100%
[15]
  viability, T/C: 102%
[16]
  viability, T/C: 109%
[17]
  viability, T/C: 110%
[18]
  viability, T/C: 105%
[19]
  viability, T/C: 111%
[20]
  viability, T/C: 99.7%
[21]
  viability, T/C: 101%
[22]
  viability, T/C: 116%
[23]
  viability, T/C: 89.3%
[24]
  viability, T/C: 113%
[25]
  viability, T/C: 98.1%
[26]
  viability, T/C: 103%
[27]
  viability, T/C: 101%
[28]
  viability, T/C: 115%
[29]
  viability, T/C: 102%
[30]
  viability, T/C: 126%
[31]
  viability, T/C: 102%
[32]
  viability, T/C: 102%
[33]
  viability, T/C: 110%
[34]
  viability, T/C: 96.7%
[35]
  viability, T/C: 127%
[36]
  viability, T/C: 117%

## O=C(Nc1ccc(O)c(NS(=O)(=O)c2ccc(F)cc2)c1)c1ccc(-c2ccccc2)cc1 + COC1C(OC(N)=O)C(O)C(Oc2ccc3c(O)c(NC(=O)c4ccc(O)c(CC=C(C)C)c4)c(=O)oc3c2C)OC1(C)C
Second compound 0.0316 µM
  IC50: > 10 µM
Second compound 0.1 µM
  IC50: > 10 µM
Second compound 0.316 µM
  IC50: > 10 µM
Second compound 1 µM
  IC50: > 10 µM
Second compound 3.16 µM
  IC50: > 10 µM
Second compound 10 µM
  IC50: > 10 µM
[1]
  viability, T/C: 93.1%
[2]
  viability, T/C: 94.8%
[3]
  viability, T/C: 94.1%
[4]
  viability, T/C: 97.9%
[5]
  viability, T/C: 106%
[6]
  viability, T/C: 101%
[7]
  viability, T/C: 98.8%
[8]
  viability, T/C: 99.4%
[9]
  viability, T/C: 102%
[10]
  viability, T/C: 107%
[11]
  viability, T/C: 103%
[12]
  viability, T/C: 97.3%
[13]
  viability, T/C: 99.3%
[14]
  viability, T/C: 99.9%
[15]
  viability, T/C: 99.8%
[16]
  viability, T/C: 97%
[17]
  viability, T/C: 104%
[18]
  viability, T/C: 102%
[19]
  viability, T/C: 102%
[20]
  viability, T/C: 98.4%
[21]
  viability, T/C: 93.5%
[22]
  viability, T/C: 103%
[23]
  viability, T/C: 104%
[24]
  viability, T/C: 89.8%
[25]
  viability, T/C: 107%
[26]
  viability, T/C: 93.2%
[27]
  viability, T/C: 92.3%
[28]
  viability, T/C: 96.5%
[29]
  viability, T/C: 99.8%
[30]
  viability, T/C: 98.3%
[31]
  viability, T/C: 97.2%
[32]
  viability, T/C: 98.7%
[33]
  viability, T/C: 102%
[34]
  viability, T/C: 103%
[35]
  viability, T/C: 101%
[36]
  viability, T/C: 104%
